In ChEMBL document CHEMBL2203024, “Synthesis of 6"-triazole-substituted α-GalCer analogues as potent iNKT cell stimulating ligands” (Bioorg Med Chem, 2012):
The source made the active and inactive calls. No cut-off for these calls is given here.

Tested on: iNKT
Assay: Antigenic activity in mouse iNKT cells co-cultured with N38-2C12 cells assessed as potentiation of glycolipid loaded bone marrow dendritic cells-induced IL-2 secretion by ELISA
Type: functional, cell-based

## CCCCCCCCCCCCCCCCCCCCCCCCCC(=O)N[C@@H](CO[C@H]1O[C@H](Cn2cc(CCc3ccccc3)nn2)[C@H](O)[C@H](O)[C@H]1O)[C@H](O)[C@H](O)CCCCCCCCCCCCCC
  Activity: Active

## CCCCCCCCCCCCCCCCCCCCCCCCCC(=O)N[C@@H](CO[C@H]1O[C@H](Cn2cc(CCCc3ccccc3)nn2)[C@H](O)[C@H](O)[C@H]1O)[C@H](O)[C@H](O)CCCCCCCCCCCCCC
  Activity: Active

## CCCCCCCCCCCCCCCCCCCCCCCCCC(=O)N[C@@H](CO[C@H]1O[C@H](Cn2cc(CCCC)nn2)[C@H](O)[C@H](O)[C@H]1O)[C@H](O)[C@H](O)CCCCCCCCCCCCCC
  Activity: Active

## CCCCCCCCCCCCCCCCCCCCCCCCCC(=O)N[C@@H](CO[C@H]1O[C@H](Cn2ccnn2)[C@H](O)[C@H](O)[C@H]1O)[C@H](O)[C@H](O)CCCCCCCCCCCCCC
  Activity: Active

## CCCCCCCCCCCCCCCCCCCCCCCCCC(=O)N[C@@H](CO[C@H]1O[C@H](Cn2cc(Cc3ccccc3)nn2)[C@H](O)[C@H](O)[C@H]1O)[C@H](O)[C@H](O)CCCCCCCCCCCCCC
  Activity: Active

## CCCCCCCCCCCCCCCCCCCCCCCCCC(=O)N[C@@H](CO[C@H]1O[C@H](Cn2cc(-c3ccccc3)nn2)[C@H](O)[C@H](O)[C@H]1O)[C@H](O)[C@H](O)CCCCCCCCCCCCCC
  Activity: Active
